Assay results published in patent publication US20030040538A1, “Novel substituted tricyclic compounds” (priority 1999, published 2003).
Where a name gives a salt, the structure may show the parent alone.

Target: T1, human β3 (Homo sapiens, UniProt P13945)
T1 construct: the full length human β3 gene was obtained from a human genomic library; expressed in transfected cells; host or cells: CHO (Chinese hamster ovary) cells, pcDNA3 vector
Assay: Human β3-agonist activities (cAMP in CHO cells transfected with human β3 gene)
Assay type: cell-based
Details: CHO cells expressing human β3; for EC50: cAMP quantitated with EIA kit after 30 minutes, read-out: human β3-agonist activity (ED50); for Emax: read-out: intrinsic activity as compared with Isoproterenol
Experimental: Human β3-Agonist Activities
Human β3-agonist activities were determined using CHO (Chinese hamster ovary) cells transfected with pcDNA3 (mfd. by Invitrogen) to which human β3 gene had been inserted. Human β3 fragment was first obtained from human adipose tissue cDNA (mfd. by Clonetech) by PCR using the primer of β3 (Krief, et al., J. Clin. Invest., 91, p. 344 (1993)). The human β3 fragment obtained was then used as a probe and then the full length human β3 gene was obtained from a human genomic library (mfd. by Clonetech).
The above cells were cultured in a Ham F-12 medium supplemented with 10% fetal bovine serum (mfd. by Dainippon Pharmaceutical), 400 μg/mL geneticin (Gibco BRL), 100 U/mL penicillin and 100 μg/mL streptomycin. After placing these cells (5×10^5) into a 6-well plate and culturing them for 24 hours, they were allowed to stand on a serum-free Ham F-12 medium for 2 hours. The compound was first dissolved in DMSO, repeatedly diluted by ten times with Ham F-12 supplemented with 1 mM isobutylmethylxanthine and 1 mM ascorbic acid to a final concentration of from 10^−5 to 10^−12 M, and then added to the cells.
After the cells were cultured for 30 minutes, the medium was removed followed by addition of 0.5 mL of an aqueous 1 N sodium hydroxide solution. The medium was allowed to stand for 20 minutes and then 0.5 mL of an aqueous 1 N acetic acid solution was added to the medium. The medium was stirred and centrifuged followed by quantitating cAMP with cAMP EIA kit (mfd. by Cayman). Isoproterenol was purchased from RBI (Research Biochemicals International).

[1] = cAMP, relative to Isoproterenol

T1 sequence (P13945 whole entry): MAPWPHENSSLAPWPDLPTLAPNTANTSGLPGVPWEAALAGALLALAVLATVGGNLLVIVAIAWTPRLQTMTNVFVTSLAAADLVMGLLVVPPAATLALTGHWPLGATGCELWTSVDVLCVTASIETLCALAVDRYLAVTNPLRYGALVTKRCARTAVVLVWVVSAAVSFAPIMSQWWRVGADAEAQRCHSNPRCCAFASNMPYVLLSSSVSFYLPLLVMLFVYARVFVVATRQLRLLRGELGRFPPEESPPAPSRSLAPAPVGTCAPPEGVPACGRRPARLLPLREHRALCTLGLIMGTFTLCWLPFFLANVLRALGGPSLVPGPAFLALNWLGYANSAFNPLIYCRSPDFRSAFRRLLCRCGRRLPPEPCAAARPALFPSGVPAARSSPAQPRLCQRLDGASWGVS

| SMILES | EC50 [nM] | Emax [1] [%] | intrinsic activity as compared with Isoproterenol [1] [%] |
| --- | --- | --- | --- |
| CC(C)(C)C(=O)Oc1ccc2c(c1)[nH]c1cc(OCCNCC(O)c3cccc(NS(C)(=O)=O)c3)ccc12 (stereo not drawn) [Example 10] | 2.4 | 112 | – |
| CS(=O)(=O)Nc1cccc([C@@H](O)CNCCOc2ccc3c(c2)[nH]c2cc(OCC(=O)O)ccc23)c1 [Example 45, (R)-N-[3-[2-[2-(7-hydroxycarbonylmethoxy-9H-carbazol-2-yloxy)ethylamino]-1-hydroxyethyl]phenyl]methanesulfonamide] | 2.6 | 114 | – |
| CC(=O)Nc1ccc2c(c1)[nH]c1cc(OCCNC[C@H](O)c3cccc(NS(C)(=O)=O)c3)ccc12 [Example 8, (R)-N-[3-[2-[2-(7-acetamido-9H-carbazol-2-yloxy)-ethylamino]-1-hydroxyethyl]phenyl]methanesulfonamide Hydrochloride] | 0.35 | 47 | – |
| COCCOc1ccc2c(c1)[nH]c1cc(OCCNC[C@H](O)c3cccc(NS(C)(=O)=O)c3)ccc12 [Example 43, (R)-N-[3-[1-hydroxy-2-[2-[7-(2-methoxyethoxy)-9H-carbazol-2-yloxy]ethylamino]ethyl]phenyl]methanesulfonamide Hydrochloride] | 0.69 | 114 | – |
| CCN(c1ccc2c(c1)[nH]c1cc(OCCNC[C@H](O)c3cccc(NS(C)(=O)=O)c3)ccc12)S(C)(=O)=O.Cl [Example 33, (R)-N-[3-[2-[2-[7-(N′-ethyl-N′-methylsulfonylamino)-9H-carbazol-2-yloxy]ethylamino]-1-hydroxyethyl]phenyl]methanesulfonamide Hydrochloride] | 0.22 | – | 94 |
| CS(=O)(=O)Nc1cccc([C@@H](O)CNCCOc2ccc3c(c2)[nH]c2cc(NS(C)(=O)=O)ccc23)c1 [Example 35, (R)-N-[3-[1-hydroxy-2-[2-(7-N′-methylsulfonylamino-9H-carbazol-2-yloxy)ethylamino]ethyl]phenyl]methanesulfonamide Hydrochloride] | 0.16 | 96 | – |

Continued, values first:

| EC50 [nM] | Emax [1] [%] | intrinsic activity as compared with Isoproterenol [1] [%] | SMILES |
| --- | --- | --- | --- |
| 0.8 | 82 | – | CS(=O)(=O)Nc1cccc([C@@H](O)CNCCOc2ccc3c(c2)[nH]c2cc(O)ccc23)c1 [Example 2, (R)-N-[3-[2-[2-(7-hydroxy-9H-carbazol-2-yloxy)ethylamino]-1-hydroxyethyl]phenyl]methanesulfonamide Hydrochloride] |
| 1.5 | 75 | – | CS(=O)(=O)Nc1cc([C@@H](O)CNCCOc2ccc3c(c2)[nH]c2cc(O)ccc23)ccc1Cl [Example 3, (R)-N-[2-chloro-5-[2-[2-(7-hydroxy-9H-carbazol-2-yloxy)ethylamino]-1-hydroxyethyl]phenyl]methanesulfonamide Hydrochloride] |
| 1 | 102 | – | CS(=O)(=O)Nc1cccc([C@@H](O)CNCCOc2ccc3c(c2)[nH]c2cc(N)ccc23)c1 [Example 9, (R)-N-[3-[2-[2-(7-amino-9H-carbazol-2-yloxy)ethylamino]-1-hydroxyethyl]phenyl]methanesulfonamide Dihydrochloride] |
